Experimental data taken from the supplement of paper PMC10307832.

Assays:
Assay in all cases: relative viability (nuclei count vs DMSO), 5 days (fraction); higher = more cells survive
NCI-H2126 = test system: NCI-H2126
Procedure, shortened: (§1)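 After 5 days of treatment, lung cancer cells in 1536-well plates were fixed and stained in a single step (final 0.05% Triton X-100, 1% formaldehyde, 1 ug/ml Hoechst) and their nuclei counted on 4× images. Treatment had been applied by pin tool the day after seeding as one drug alone or as a fixed anchor-drug dose with five library-drug doses (not always all listed) in √10 steps. Relative viability is the nuclei count of treated wells divided by that of vehicle wells, and values are medians of duplicate plates.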

NCI-H23 = test system: NCI-H23
Procedure, shortened: as §1

HARA = test system: HARA
Procedure, shortened: as §1

NCI-H522 = test system: NCI-H522
Procedure, shortened: as §1

NCI-H838 = test system: NCI-H838
Procedure, shortened: as §1

NCI-H650 = test system: NCI-H650
Procedure, shortened: as §1

NCI-H1993 = test system: NCI-H1993
Procedure, shortened: as §1

LCLC-103H = test system: LCLC-103H
Procedure, shortened: as §1

HCC-44 = test system: HCC-44
Procedure, shortened: as §1

EMC-BAC-2 = test system: EMC-BAC-2
Procedure, shortened: as §1

NCI-H3122 = test system: NCI-H3122
Procedure, shortened: as §1

NCI-H1395 = test system: NCI-H1395
Procedure, shortened: as §1

NCI-H441 = test system: NCI-H441
Procedure, shortened: as §1

NCI-H2347 = test system: NCI-H2347
Procedure, shortened: as §1

NCI-H596 = test system: NCI-H596
Procedure, shortened: as §1

NCI-H2087 = test system: NCI-H2087
Procedure, shortened: as §1

LOU-NH91 = test system: LOU-NH91
Procedure, shortened: as §1

NCI-H647 = test system: NCI-H647
Procedure, shortened: as §1

BEN = test system: BEN
Procedure, shortened: as §1

NCI-H727 = test system: NCI-H727
Procedure, shortened: as §1

201T = test system: 201T
Procedure, shortened: as §1

Nc1ccn([C@@H]2O[C@H](CO)[C@@H](O)[C@@H]2O)c(=O)n1 [Cytarabine] + NC(=O)Nc1cc(-c2cccc(F)c2)sc1C(=O)N[C@H]1CCCNC1 [AZD7762] (partner 0.2 µM)
relative viability (NCI-H2126; first compound 0.005 µM): 0.965
relative viability (NCI-H2126; first compound 0.01581 µM): 0.936
relative viability (NCI-H2126; first compound 0.05 µM): 0.808
relative viability (NCI-H2126; first compound 0.1581 µM): 0.361
relative viability (NCI-H2126; first compound 0.5 µM): 0.267
relative viability (NCI-H23; first compound 0.005 µM): 0.227
relative viability (NCI-H23; first compound 0.01581 µM): 0.171
relative viability (NCI-H23; first compound 0.05 µM): 0.202
relative viability (NCI-H23; first compound 0.1581 µM): 0.126
relative viability (NCI-H23; first compound 0.5 µM): 0.134
relative viability (HARA; first compound 0.005 µM): 0.298
relative viability (HARA; first compound 0.01581 µM): 0.211
relative viability (HARA; first compound 0.05 µM): 0.176
relative viability (HARA; first compound 0.1581 µM): 0.157
relative viability (HARA; first compound 0.5 µM): 0.171
relative viability (NCI-H522; first compound 0.005 µM): 0.827
relative viability (NCI-H522; first compound 0.01581 µM): 0.605
relative viability (NCI-H522; first compound 0.05 µM): 0.72
relative viability (NCI-H522; first compound 0.1581 µM): 0.426
relative viability (NCI-H522; first compound 0.5 µM): 0.34
relative viability (NCI-H838; first compound 0.005 µM): 0.738
relative viability (NCI-H838; first compound 0.01581 µM): 0.699
relative viability (NCI-H838; first compound 0.05 µM): 0.665
relative viability (NCI-H838; first compound 0.1581 µM): 0.652
relative viability (NCI-H838; first compound 0.5 µM): 0.631
relative viability (NCI-H650; first compound 0.005 µM): 0.843
relative viability (NCI-H650; first compound 0.01581 µM): 0.26
relative viability (NCI-H650; first compound 0.05 µM): 0.19
relative viability (NCI-H650; first compound 0.1581 µM): 0.146
relative viability (NCI-H650; first compound 0.5 µM): 0.162
relative viability (NCI-H1993; first compound 0.005 µM): 0.766
relative viability (NCI-H1993; first compound 0.01581 µM): 0.562
relative viability (NCI-H1993; first compound 0.05 µM): 0.654
relative viability (NCI-H1993; first compound 0.1581 µM): 0.523
relative viability (NCI-H1993; first compound 0.5 µM): 0.523
relative viability (LCLC-103H; first compound 0.005 µM): 0.763
relative viability (LCLC-103H; first compound 0.01581 µM): 0.704
relative viability (LCLC-103H; first compound 0.05 µM): 0.751
relative viability (LCLC-103H; first compound 0.1581 µM): 0.469
relative viability (LCLC-103H; first compound 0.5 µM): 0.369
relative viability (HCC-44; first compound 0.005 µM): 1.07
relative viability (HCC-44; first compound 0.01581 µM): 0.916
relative viability (HCC-44; first compound 0.05 µM): 0.476
relative viability (HCC-44; first compound 0.1581 µM): 0.332
relative viability (HCC-44; first compound 0.5 µM): 0.249
relative viability (EMC-BAC-2; first compound 0.005 µM): 1.09
relative viability (EMC-BAC-2; first compound 0.01581 µM): 0.97
relative viability (EMC-BAC-2; first compound 0.05 µM): 0.674
relative viability (EMC-BAC-2; first compound 0.1581 µM): 0.344
relative viability (EMC-BAC-2; first compound 0.5 µM): 0.308
relative viability (NCI-H3122; first compound 0.005 µM): 0.943
relative viability (NCI-H3122; first compound 0.01581 µM): 0.585
relative viability (NCI-H3122; first compound 0.05 µM): 0.397
relative viability (NCI-H3122; first compound 0.1581 µM): 0.184
relative viability (NCI-H3122; first compound 0.5 µM): 0.138
relative viability (NCI-H1395; first compound 0.005 µM): 0.383
relative viability (NCI-H1395; first compound 0.01581 µM): 0.39
relative viability (NCI-H1395; first compound 0.05 µM): 0.331
relative viability (NCI-H1395; first compound 0.1581 µM): 0.364
relative viability (NCI-H1395; first compound 0.5 µM): 0.351
relative viability (NCI-H441; first compound 0.005 µM): 0.982
relative viability (NCI-H441; first compound 0.01581 µM): 0.912
relative viability (NCI-H441; first compound 0.05 µM): 0.814
relative viability (NCI-H441; first compound 0.1581 µM): 0.306
relative viability (NCI-H441; first compound 0.5 µM): 0.211
relative viability (NCI-H2347; first compound 0.005 µM): 0.721
relative viability (NCI-H2347; first compound 0.01581 µM): 0.525
relative viability (NCI-H2347; first compound 0.05 µM): 0.47
relative viability (NCI-H2347; first compound 0.1581 µM): 0.369
relative viability (NCI-H2347; first compound 0.5 µM): 0.286
relative viability (NCI-H596; first compound 0.005 µM): 1
relative viability (NCI-H596; first compound 0.01581 µM): 1.01
relative viability (NCI-H596; first compound 0.05 µM): 0.787
relative viability (NCI-H596; first compound 0.1581 µM): 0.419
relative viability (NCI-H596; first compound 0.5 µM): 0.343
relative viability (NCI-H2087; first compound 0.005 µM): 1.28
relative viability (NCI-H2087; first compound 0.01581 µM): 1.56
relative viability (NCI-H2087; first compound 0.05 µM): 1.11
relative viability (NCI-H2087; first compound 0.1581 µM): 0.709
relative viability (NCI-H2087; first compound 0.5 µM): 0.231
relative viability (LOU-NH91; first compound 0.005 µM): 0.645
relative viability (LOU-NH91; first compound 0.01581 µM): 0.803
relative viability (LOU-NH91; first compound 0.05 µM): 0.708
relative viability (LOU-NH91; first compound 0.1581 µM): 0.548
relative viability (LOU-NH91; first compound 0.5 µM): 0.252
relative viability (NCI-H647; first compound 0.005 µM): 0.188
relative viability (NCI-H647; first compound 0.01581 µM): 0.0767
relative viability (NCI-H647; first compound 0.05 µM): 0.0765
relative viability (NCI-H647; first compound 0.1581 µM): 0.0321
relative viability (NCI-H647; first compound 0.5 µM): 0.0304
relative viability (BEN; first compound 0.005 µM): 0.588
relative viability (BEN; first compound 0.01581 µM): 0.425
relative viability (BEN; first compound 0.05 µM): 0.296
relative viability (BEN; first compound 0.1581 µM): 0.259
relative viability (BEN; first compound 0.5 µM): 0.241
relative viability (NCI-H727; first compound 0.005 µM): 0.518
relative viability (NCI-H727; first compound 0.01581 µM): 0.565
relative viability (NCI-H727; first compound 0.05 µM): 0.377
relative viability (NCI-H727; first compound 0.1581 µM): 0.361
relative viability (NCI-H727; first compound 0.5 µM): 0.418
relative viability (201T; first compound 0.005 µM): 0.635
relative viability (201T; first compound 0.01581 µM): 0.596
relative viability (201T; first compound 0.05 µM): 0.653
relative viability (201T; first compound 0.1581 µM): 0.342
relative viability (201T; first compound 0.5 µM): 0.265
